What was measured:
[1] = target: T1, human adenosine A2A receptor (Homo sapiens, UniProt P29274); assay: Antagonizing effect on human adenosine A2A receptor (cAMP, TR-FRET, NECA-stimulated HEK-293 cells); type: cell-based; settings: inhibition of cAMP produced by NECA (3 nM), HEK-293 cells expressing human recombinant A2A receptor
T1 construct: expressed in transfected cells; host or cells: HEK-293
Procedure: The experimental system uses human recombinant adenosine A2A receptor, which is stably expressed in HEK-293 cell line. HEK-293 cells were inoculated into culture plate at a density of 1.25×10^5 cells /mL. The medium was changed by modified HBSS solution with pH 7.4, different concentrations of test compounds (10 μM, 1 μM, 0.1 μM, 10 nM, 1 nM, 0.1 nM) and solvents (PBS with 0.1% DMSO) were added, and the plate was incubated at 37° C. for 10 min. cAMP (cyclic adenosine monophosphate) concentration in culture medium was detected by TR-FRET method. NECA was used as a positive control in this experiment, (1) test compounds alone were used to stimulate cells to produce a certain amount of cAMP, and then NECA (0.1 μM) alone was used to stimulate cells to produce a certain amount of cAMP. A test compound is considered to have agonistic activity on adenosine A2A receptor if the test compound alone stimulates cells to produce cAMP more than 50% of the amount of cAMP produced by NECA (0.1 μM) alone. (2) All cells were first incubated with test compounds and then stimulated with NECA (3 nM). In addition, NECA (3 nM) alone was used to stimulate cells to produce a certain amount of cAMP. […] IC50 was calculated using MathIQ™ (ID Business Solutions Ltd., UK) through nonlinear, least squares regression equation analysis.

[2] = Pharmacokinetic evaluation in rats after intravenous or intragastric administration; type: in vivo, SD rats; settings: for AUC(0-inf) / AUC(0-t) / Cmax / MRT inf / Tmax / clearance / half-life: SD, rat, plasma
Procedure: The LC-MS/MS system for analysis includes the Agilent 1200 series vacuum degasser, a quaternary pump, an orifice plate sampler, a thermostatted column oven, and an API4000Qtrap triple quadrupole mass spectrometer with an electrospray ionization source (ESI).
Waters ACQUITY UPLC CSH C18, 2.1×50 mm, 1.7 μm column was used for analysis, and 0.8 μL of sample was injected. Analytical conditions: mobile phase was H2O+2 mM HCOONH4 (ammonium formate)+0.1% FA (formic acid) (mobile phase A) and MeOH (methanol)+2 mM HCOONH4 (ammonium formate)+0.1% FA (formic acid) (mobile phase B). Flow rate was 0.7 mL/min.
The experiment was divided into two groups: one was administered by intravenous injection, and the other was administered by intragastric administration. The compound of the present invention was administered to a test animal (overnight fast for 12 hours) in the form of 10% DMA (heating)+60% PEG400+30% saline solution. For the group of intravenous administration, the administration dose was 1 mg/kg, and vein blood samples (0.3 mL) were collected at the time points of 0.083, 0.25, 0.5, 1.0, 2.0, 5.0, 7.0 and 24 h after administration. EDTA-K2 as anticoagulant was added into the blood vessel. The plasma solutions were collected by centrifuging each blood sample at 3,000 rpm or 4,000 rpm for 10 minutes and kept at −20° C. or −70° C. For the group of intragastric administration, the administration dose was 5 mg/kg, and vein blood samples (0.3 mL) were collected at the time points of 0.25, 0.5, 1.0, 2.0, 5.0, 7.0 and 24 h after administration. EDTA-K2 as anticoagulant was added into the blood vessel. The plasma solutions were collected by centrifuging each blood sample at 3,000 rpm or 4,000 rpm for 10 minutes and kept at −20° C. or −70° C.
20 μL of plasma was taken, 120 μL of IS working solution was added to the plasma, and the plasma mixture was vortexed for 2 min. The mixed solution was then centrifuged at 12,000 rpm for 2 min. 100 μL of the supernatant was taken, 110 μL of MeOH/H2O (v/v=1/1) was added, and the solution was vortexed for 2 minutes, then 5 μL was taken for inj ection into the LC-MS/MS system.

[3] = Pharmacokinetic evaluation in beagles after intravenous or intragastric administration; type: in vivo, beagle
Procedure: The LC/MS/MS system for analysis includes the Agilent 1200 series vacuum degasser, a quaternary pump, an orifice plate sampler, a thermostatted column oven, and an API4000Qtrap triple quadrupole mass spectrometer with an electrospray ionization source (ESI).
Waters xbridge C18, 2.1×50 mm, 3.5 μm column was used for analysis, and 0.5 μL of sample was injected. Analytical conditions: mobile phase consisting of mobile phase A (H2O+2 mM HCOONH4 (ammonium formate) +0.1% FA (formic acid)) and mobile phase B (MeOH (methanol)+2 mM HCOONH4 (ammonium formate)+0.1% FA (formic acid)). Flow rate was 0.7 mL/min.
The experiment was divided into two groups: one was administered by intravenous injection, and the other was administered by intragastric administration. The compound of the present invention was administered to a test animal in the form of 10% DMA (heating)+60% PEG400+30% saline solution. For the group of intravenous administration, the administration dose was 1 mg/kg, and vein blood samples (0.3 mL) were collected at the time points of 0.083, 0.25, 0.5, 1.0, 2.0, 4.0, 6.0, 8.0 and 24 h after administration. The plasma solutions were collected (EDTA-K2 as anticoagulant) by centrifuging each blood sample at 3,000 rpm or 4,000 rpm for 10 minutes and then kept at −20° C. or −70° C. For the group of intragastric administration, the administration dose was 5 mg/kg, and vein blood samples (0.3 mL) were collected at the time points of 0.25, 0.5, 1.0, 2.0, 5.0, 7.0 and 24 h after administration. The plasma solutions were collected (EDTA-K2 as anticoagulant) by centrifuging each blood sample at 3,000 rpm or 4,000 rpm for 10 minutes and then kept at −20° C. or −70° C.
10 μL of plasma was taken, 120 μL of IS working solution was added to the plasma, and the plasma mixture was vortexed for 2 min. The mixed solution was then centrifuged at 12,000 rpm for 2 min. 80 μL of the supernatant was taken, 140 μL of methanol/H2O (v/v =1/1) was added, and the solution was vortexed for 2 minutes, then 1.0 μL was taken for injection into the LC-MS/MS system. LC-MS/MS method was used to detect the concentration of target compounds, and non-compartment model was used to calculate pharmacokinetic parameters, and the results were shown in table C.

[4] = po, intragastric administration, 5 mg/kg
[5] = intragastric administration, 5 mg/kg
[6] = beagle, dog, plasma, intravenous injection, 1 mg/kg
[7] = beagle, dog, plasma, po, intragastric administration, 5 mg/kg

T1 sequence (P29274 whole entry): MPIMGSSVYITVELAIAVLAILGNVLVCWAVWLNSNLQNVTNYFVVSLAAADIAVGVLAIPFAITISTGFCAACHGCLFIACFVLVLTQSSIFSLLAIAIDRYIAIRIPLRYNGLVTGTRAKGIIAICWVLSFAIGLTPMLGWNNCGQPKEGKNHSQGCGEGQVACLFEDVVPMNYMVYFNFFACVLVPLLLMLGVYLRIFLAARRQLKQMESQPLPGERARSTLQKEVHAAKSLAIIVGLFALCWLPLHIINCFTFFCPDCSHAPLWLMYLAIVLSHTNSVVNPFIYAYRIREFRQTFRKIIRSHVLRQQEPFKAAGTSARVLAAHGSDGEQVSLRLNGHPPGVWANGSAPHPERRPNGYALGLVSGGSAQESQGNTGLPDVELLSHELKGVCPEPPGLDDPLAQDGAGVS

| IC50 [1] [nM] | AUC(0-inf) ([2]; intravenous injection, 1 mg/kg) [ng·h/mL] | AUC(0-t) ([2]; intravenous injection, 1 mg/kg) [ng·h/mL] | Cmax ([2]; intravenous injection, 1 mg/kg) [ng/mL] | MRT inf ([2]; intravenous injection, 1 mg/kg) [h] | Tmax ([2]; intravenous injection, 1 mg/kg) [h] | clearance ([2]; intravenous injection, 1 mg/kg) [mL/min/kg] | half-life ([2]; intravenous injection, 1 mg/kg) [h] | AUC(0-inf) [2, 4] [ng·h/mL] | AUC(0-t) [2, 4] [ng·h/mL] | Cmax [2, 4] [ng/mL] | MRT inf [2, 4] [h] | Tmax [2, 4] [h] | half-life [2, 4] [h] | F [2, 5] [%] | Vss ([2]; intravenous injection, 1 mg/kg) [kg⁻¹] | SMILES | further results |
| --- | --- | --- | --- | --- | --- | --- | --- | --- | --- | --- | --- | --- | --- | --- | --- | --- | --- |
| 2990 |  |  |  |  |  |  |  |  |  |  |  |  |  |  |  | CCn1c(=O)c2c(nc(/C=C/c3ccc(OC4CCS(=O)(=O)CC4)nc3)n2C)n(CC)c1=O [Example 4, (E)-8-(2-(6-((1,1-dioxidotetrahydro-2H-thiopyran-4-yl)oxy)pyridin-3-yl)vinyl)-1,3-diethyl-7-methyl-1H-purine-2,6(3H,7H)-dione] |  |
| 1480 |  |  |  |  |  |  |  |  |  |  |  |  |  |  |  | CCn1c(=O)c2c(nc(/C=C/c3ccc(OC4CCC(F)(F)CC4)cc3)n2C)n(CC)c1=O [Example 6, (E)-8-(4-((4,4-difluorocyclohexyl)oxy)styryl)-1,3-diethyl-7-methyl-1H-purine-2,6(3H,7H)-dione] |  |
| 3250 | 4230 | 4180 | 985 | 4.35 | 0.083 | 3.94 | 4 | 24400 | 23700 | 3110 | 5.94 | 1.67 | 4.77 | 110.2 | 1.03 | CCn1c(=O)c2c(nc(/C=C/c3ccc(OC4CCS(=O)(=O)CC4)c(F)c3)n2C)n(CC)c1=O [Example 2, (E)-8-(4-((1,1-dioxidotetrahydro-2H-thiopyran-4-yl)oxy)-3-fluorostyryl)-1,3-diethyl-7-methyl-1H-purine-2,6(3H,7H)-dione] |  |
| 2510 | 4360 | 4340 | 879 | 4.26 | 0.083 | 3.82 | 3.35 | 32300 | 32100 | 3660 | 5.2 | 1.67 | 3.39 | 148.2 | 0.977 | CCn1c(=O)c2c(nc(/C=C/c3ccc(OC4CCS(=O)(=O)CC4)cc3)n2C)n(CC)c1=O [Example 1, (E)-8-(4-((1,1-dioxidotetrahydro-2H-thiopyran-4-yl)oxy)styryl)-1,3-diethyl-7-methyl-1H-purine-2,6(3H,7H)-dione] | AUC(0-inf) [3, 6]: 56300 ng·h/mL; AUC(0-t) [3, 6]: 25400 ng·h/mL; Cmax [3, 6]: 1870 ng/mL; MRT inf [3, 6]: 41.5 h; Tmax [3, 6]: 1 h; clearance [3, 6]: 0.296 mL/min/kg; half-life [3, 6]: 30.5 h; AUC(0-inf) [3, 7]: 114000 ng·h/mL; AUC(0-t) [3, 7]: 40300 ng·h/mL; Cmax [3, 7]: 2530 ng/mL; MRT inf [3, 7]: 54 h; Tmax [3, 7]: 4.67 h; half-life [3, 7]: 36.9 h; F [3, 5]: 38.7%; Vss ([3]; intravenous injection, 1 mg/kg): 0.737 kg⁻¹ |

Source: patent publication US20220202822A1, “8-SUBSTITUTED ARYL VINYL XANTHINE DERIVATIVES AND USES THEREOF” (SUNSHINE LAKE PHARMA CO., LTD., priority 2019, published 2022)
